± gives the standard deviation of the averaged measurements.
Experiments:
Conditions in all cases: 72 h
HL-60 [1] = assay: area under dose-response curve (viability, 1 nM-10 uM) (fraction (0-1)); higher = more sensitive
In short: (§1)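 A rescreen of the full library used HL-60 cells in RPMI 1640 with 10% FBS on 384-well plates, run in duplicate at five tenfold concentrations (1–10,000 nM). Each screen included DMSO or 100 nM of one of three metabolic inhibitors and ran 72 h at 37 °C, 5% CO2. CellTiter-Glo viability was scaled between DMSO and 10 μM proteasome-inhibitor wells. Any area under the curve comes from four-parameter log-logistic fits with drc and PharmacoGx.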

SHI-1 [2] = assay: cell viability (% survival relative to DMSO control, bortezomib = 0%); higher = less cytotoxic
In short: (§2)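 Fifteen myeloid leukaemia cell lines (10 AML, 5 CML) were seeded at a density titrated to the linear growth range into 384-well plates pre-printed with compounds at 1, 10, 100, 1000 or 10000 nM in duplicate. Plates were incubated for 72 h at 37 °C with 5% CO2. Viability was then read by CellTiter-Glo luminescence. Each value is percent survival averaged over the duplicates, with vehicle set to 100% and a 10 µM positive control to 0%.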

KCL-22 [3] = assay: as above
In short: as §2

MV4-11 [4] = assay: as above
In short: as §2

Mono-Mac-6 [5] = assay: as above
In short: as §2

ML-2 [6] = assay: as above
In short: as §2

KG-1 [7] = assay: as above
In short: as §2

LAMA-84 [8] = assay: as above
In short: as §2

BV-173 [9] = assay: as above
In short: as §2

HL-60 [10] = assay: as above
In short: as §2

HEL [11] = assay: as above
In short: as §2

K-562 [12] = assay: as above
In short: as §2

HL-60 [13] = assay: cell viability (% survival relative to DMSO control); higher = less cytotoxic
In short: as §1

SHI-1 [14] = tested on: SHI-1
In short: (§3)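 Each of fifteen myeloid leukaemia cell lines was seeded in RPMI 1640 at a density titrated to its linear growth range. The cells were incubated for 72 h at 37 °C and 5% CO2 with compounds at five tenfold doses from 1 to 10,000 nM, in duplicate. After ATP luminescence was normalised to vehicle and to a positive control at 10 µM, four-parameter log-logistic curves were fitted. These curves gave the IC50.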

KCL-22 [15] = tested on: KCL-22
In short: as §3

MV4-11 [16] = tested on: MV4-11
In short: as §3

Mono-Mac-6 [17] = tested on: Mono-Mac-6
In short: as §3

KU-812 = tested on: KU-812
In short: as §3

ML-2 [18] = tested on: ML-2
In short: as §3

KG-1 [19] = tested on: KG-1
In short: as §3

MOLM-13 = tested on: MOLM-13
In short: as §3

LAMA-84 [20] = tested on: LAMA-84
In short: as §3

BV-173 [21] = tested on: BV-173
In short: as §3

HL-60 [22] = tested on: HL-60
In short: as §3

NOMO-1 = tested on: NOMO-1
In short: as §3

THP-1 = tested on: THP-1
In short: as §3

HEL [23] = tested on: HEL
In short: as §3

K-562 [24] = tested on: K-562
In short: as §3

O=NN(CCCl)C(=O)NCCCl [Carmustine]
Conditions	area under dose-response curve, co-treatment: AZD3965 100 nM	area under dose-response curve, co-treatment: DMSO vehicle	area under dose-response curve, co-treatment: GSK2194069 100 nM	area under dose-response curve, co-treatment: pictilisib 100 nM	cell viability, 1 nM [%]	cell viability, 10 nM [%]	cell viability, 100 nM [%]	cell viability, 1000 nM [%]	cell viability, 10000 nM [%]
BV-173 [9]	–	–	–	–	102	120	105	95.3	78.5
HEL [11]	–	–	–	–	98.3	114	111	103	101
HL-60 [1]	< 0.0301	< 0.0301	< 0.0301	< 0.0301	–	–	–	–	–
HL-60 [10]	–	–	–	–	98.8	101	98.1	97.8	101
K-562 [12]	–	–	–	–	95.1	123	75.8	111	101
KCL-22 [3]	–	–	–	–	83.1	122	104	88.8	97.4
KG-1 [7]	–	–	–	–	110	114	108	102	97.5
LAMA-84 [8]	–	–	–	–	98.7	93.1	105	92.9	99.3
ML-2 [6]	–	–	–	–	104	122	106	96	106
MV4-11 [4]	–	–	–	–	96.3	104	103	106	83.4
Mono-Mac-6 [5]	–	–	–	–	106	97.8	99.8	109	117
SHI-1 [2]	–	–	–	–	87	109	97.6	128	104

cell viability [%], HL-60 [13]
Conditions	0.001 µM	0.01 µM	0.1 µM	1 µM	10 µM
co-treatment: AZD3965 100 nM	95.3 ± 1.7	95 ± 12	99.5 ± 3.9	98.8 ± 5.9	100.8 ± 0.83
co-treatment: DMSO vehicle	96.8 ± 3.4	102 ± 6	100.48 ± 0.1	97.8 ± 1	105 ± 3.5
co-treatment: GSK2194069 100 nM	89.9 ± 1.6	97.4 ± 11	98.9 ± 2.9	97.5 ± 2.7	104 ± 9.1
co-treatment: pictilisib 100 nM	86.1 ± 8.4	83.1 ± 1.1	110 ± 7.2	93.7 ± 4.2	118 ± 24

Conditions	IC50 (cell viability) [µM]
BV-173 [21]	> 10
HEL [23]	> 10
HL-60 [22]	> 10
K-562 [24]	> 10
KCL-22 [15]	> 10
KG-1 [19]	> 10
KU-812	> 10
LAMA-84 [20]	> 10
ML-2 [18]	> 10
MOLM-13	> 10
MV4-11 [16]	> 10
Mono-Mac-6 [17]	> 10
NOMO-1	> 10
SHI-1 [14]	> 10
THP-1	> 10
